# Experiments:
# [1] = tested on: BH murine tumor archive (HER2-dependent murine breast tumors); assay: Tumor response to tivozanib in subcutaneously transplanted BH archive murine breast tumors; assay type: in vivo, mouse
# Description: (§1) A genetically diverse population of more than 100 murine breast tumors (BH archive) was used to identify tumors that are sensitive to a drug of interest (responders) and tumors that are resistant to the same drug of interest (non-responders). The BH archive was established by in vivo propagation and cryopreservation of primary tumor material from more than 100 spontaneous murine breast tumors derived from engineered chimeric mice that develop HER2-dependent, inducible spontaneous breast tumors.
# The BH archive of more than 100 tumors was produced essentially as follows. Primary tumor cells were isolated from the chimeric animals by physical disruption of the tumors using cell strainers. Typically 1×10^5 cells were mixed with Matrigel (50:50 by vol.) and injected subcutaneously into female NCr nu/nu mice. When these tumors grew to approximately 500 mm3, which typically required 2 to 4 weeks, they were collected for one further round of in vivo propagation, after which tumor material was cryopreserved in liquid nitrogen. To characterize the propagated and archived tumors, 1×10^5 cells from each individual tumor line were thawed and injected subcutaneously in BALB/c nude mice. When the tumors reached a mean size of 500 to 800 mm3, animals were sacrificed and tumors were surgically removed for further analysis.
# Tumors in the BH murine tumor archive were tested for sensitivity to treatment with tivozanib. Evaluation of tumor response to this drug treatment was performed essentially as follows. Subcutaneously transplanted tumors were established by injecting physically disrupted tumor cells (mixed with Matrigel) into 6 week-old female BALB/c nude mice. When the tumors reached approximately 100-200 mm3, 20 tumor-bearing mice were randomized into two groups. Group 1 received vehicle. Group 2 received tivozanib at 5 mg/kg daily by oral gavage. Tumors were measured twice per week by a caliper, and tumor volume was calculated.
# The variation in response was expected, because the mouse model tumors had been propagated from spontaneously arising tumors, and were therefore expected to contain differing sets of secondary de novo mutations that contributed to tumorogenesis. […] Tivozanib-sensitive tumors and tivozanib-resistant tumors were identified (classified) on the basis of tumor growth inhibition, histopathology and IHC (CD31).
# [2] = tested on: BH murine tumor archive (HER2-dependent murine breast tumors); assay: Tumor response to rapamycin in subcutaneously transplanted BH archive murine breast tumors; assay type: in vivo, mouse; settings: out of 66 tumors; 0.1 mg/kg daily, intraperitoneal injection
# Description: as §1
# The BH archive of more than 100 tumors was produced essentially as follows. Primary tumor cells were isolated from the chimeric animals by physical disruption of the tumors using cell strainers. Typically 1×10^5 cells were mixed with Matrigel (50:50 by vol.) and injected subcutaneously into female NCr nu/nu mice. When these tumors grew to approximately 500 mm3, which typically required 2 to 4 weeks, they were collected for one further round of in vivo propagation, after which tumor material was cryopreserved in liquid nitrogen. […]
# Tumors from the BH murine tumor archive were tested for sensitivity to treatment with rapamycin (also known as sirolimus, or RAPAMUNE®). […] Tumors were measured twice per week by a caliper, and tumor volume was calculated.
# [3] = out of 25 tumors, 5 mg/kg tivozanib, classified by tumor growth inhibition, histopathology and IHC (CD31)
Compound,"tumor progression (by caliper measurement) in tivozanib-sensitive tumors ([1]; 5 mg/kg daily by oral gavage, BALB/c nude mice, tivozanib-sensitive tumors)","tumor killing in tivozanib-sensitive tumors ([1]; 5 mg/kg, tivozanib-sensitive tumors, histopathology)","number of tumors actually resistant [1, 3]","number of tumors actually sensitive [1, 3]",number of rapamycin-resistant tumors (50% tumor growth inhibition or less) [2],number of rapamycin-sensitive tumors (more than 50% tumor growth inhibition) [2]
COc1cc2nccc(Oc3ccc(NC(=O)Nc4cc(C)on4)c(Cl)c3)c2cc1OC [tivozanib],no tumor progression,"close to complete tumor killing, except for the peripheries",16,9,,
CO[C@H]1C[C@@H]2CC[C@@H](C)[C@@](O)(O2)C(=O)C(=O)N2CCCC[C@H]2C(=O)O[C@H]([C@H](C)C[C@@H]2CC[C@@H](O)[C@H](OC)C2)CC(=O)[C@H](C)/C=C(\C)[C@@H](O)[C@@H](OC)C(=O)[C@H](C)C[C@H](C)/C=C/C=C/C=C/1C [rapamycin],,,,,25,41

# Source: patent US20130165343A1, “IDENTIFICATION OF MULTIGENE BIOMARKERS” (AVEO Pharmaceuticals, Inc., priority 2011, published 2013)
